From publication PMC6689897, “Drugging an undruggable pocket on KRAS” (Proceedings of the National Academy of Sciences of the …, 2019) come the findings set out here.

The test deals with GCP-KRASG12D (Homo sapiens, UniProt P01116, G12D). Kind of test: HSQC NMR KD of fragment hits. The conditions noted are these: fragment screen hits, active form of KRAS. It is filed as binding. The text has this: Next, we attempted to identify compounds that bind to GTP-KRAS via fragment-based screening ([21]–[23]). A library of 1,800 fragments was screened using both saturation transfer difference NMR ([24], [25]) and microscale thermophoresis ([26]) using KRAS^G12V-phosphomethylphosphonic acid guanylate ester (GCP-KRAS^G12V), from which 16 fragments were found and subsequently validated (hit rate 0.9%) by the observation of cross-peak shifts in the 2D ^1H/^15N heteronuclear single-quantum correlation (HSQC) NMR spectra of GCP-KRAS^G12D. We also screened a library of 13,800 compounds using uniformly ^15N-labeled GNP-KRAS by HSQC NMR experiments. Representatives of some of the fragments which bound the active form of KRAS from the 2 screens are depicted in Fig. 1A. […]
Chain of GCP-KRASG12D (P01116 1-169 isoform P01116-2 G12D): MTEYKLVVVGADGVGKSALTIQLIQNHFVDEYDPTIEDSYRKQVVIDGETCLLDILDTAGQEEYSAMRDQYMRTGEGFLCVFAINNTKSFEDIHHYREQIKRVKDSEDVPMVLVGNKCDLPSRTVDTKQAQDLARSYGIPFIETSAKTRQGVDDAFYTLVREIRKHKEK
98 Measurement of dissociation constants KD for the compounds synthesized. NMR
99 was initially the only method that could provide K Ds for the weakly binding molecules to
100 support compound optimization. 1H/15N SoFast HMQC experiments(3) were recorded in
101 3mm NMR tubes (170µL filling) at a protein concentration of 70-100µM. Spectra were
102 recorded on a Avance III 700MHz spectrometer equipped with a cryogenically cooled
103 5mm TCI probe and 48 scans, 128 f1 increments and 2k data points in f2. Total
104 acquisition time was 22 minutes. 4 – 6 titration points were performed w ith individual
105 samples for each titration point made from 50mM DMSO -d6 stock solutions. Total
106 DMSO-d6 concentration was kept constant by backfilling every sample to a total of 4%
107 DMSO. KDs were calculated from the differences in chemical shift induced by t he small
108 molecules upon interacting with the protein. Average chemical shifts from the 1H and 15N
109 dimension were calculated according to the following equation:
110 ∆δobs = √[δH2 + (α ∙δN)2] with α set to 0.14
111 The Δδobs values at the respective ligand concentrations and the total concentration
112 of protein allow a fit to the KD value of the ligand as long as it is binding under fast
113 exchange conditions as was the case for most of the compounds tested.(4) Usually Δδobs
115 following equation was used to determine the individual KDs: […]
121 HEPES, 150 mM NaCl, 3% DMSO, pH 7.5. All measurements were carried out at 25°C.
122 Titrations were performed in inverse mode. The cell was loaded with compound solutions
123 in the range of 10 to 100 µM. All injections were performed using an initial injection of
124 0.5 μL followed by 19 injections of 2 μL of protein in the range of 130-500 µM. The data
125 were analyzed with the MicroCal PEAQ-ITC analysis software package. The first data
Turning to `Clc1ccc2[nH]c3c(c2c1)CNCC3` [Compound 2], the Kd (commonly the free concentration of one partner at which half of the binding sites on the other are occupied at equilibrium, for simple one-to-one binding) is above 2000 µM.
For `O=C(c1c[nH]c2ccccc12)N1CCNCC1` [Compound 3] the value was above 2000 µM; for `Nc1nc2ccccc2n1Cc1ccccc1` [Compound 4], above 2000 µM.
Consider `c1ccc2c(CN3CCOCC3)c[nH]c2c1` [Compound 6], for which the Kd was above 5000 µM.
For `Nc1ccc2nc(Cc3c[nH]c4ccccc34)[nH]c2c1` [Compound 7] the value was 1300 µM.
